According to patent publication US7862836B2, “Phosphorus binder for treatment of kidney disease” (Biolink Life Sciences, Inc., priority 2005, dated 2011):
Read-outs that look alike come from different tables or passages of the source.

Legend:
[1] = Sheikh et al., cited from earlier work; for Observed in vitro Pi Binding, %: pH 6.0
[2] = Solubility in water of cationic phosphate binders (Table 1)
[3] = cited from earlier work
[4] = cited from earlier work; remark: listed apart in the source
[5] = test system: parathyroid hormone (PTH) secretion; conditions: maintenance dialysis patients; cited from earlier work
[6] = in many patients; cited from earlier work
Stability during storage = format: physicochemical
[7] = mean of triplicate
Method: The pH of each solution was adjusted to the desired value by the addition of concentrated hydrochloric acid or sodium hydroxide, as appropriate.
The separation was performed on a Dionex AS11 Cation-Exchange HPLC column integrated with an Agilent Series 1100 HPLC system, and detection of the anionic species was enabled using a Dionex ED50 Electrochemical Detector, operating in Conductivity Mode. Limits of Detection and Quantitation were enhanced through the use of a Dionex Anion Self-Regenerating Suppressor. After assay-specific development and verification of assay performance were completed, the analysis of phosphate and succinate or acetate was performed by sampling the test solution and diluting it, if necessary, to a concentration within the linear range of the Assay. The sample was then injected onto the HPLC column and eluted with a sodium hydroxide gradient. Data were acquired using Agilent ChemStation® software.
The test or control binder was dissolved in deionized water to a volume of 30 mL. The binder solution was added to the phosphorus solution to give a final volume of 600 mL. For each binder study, the phosphorus solutions were titrated by addition of concentrated HCl or NaOH to two different initial pH levels: 4 and 6. […] This was expressed as percent of the total phosphorus present in the original solution. […]

[8] = hemodialysis or peritoneal dialysis patients; cited from earlier work
[9] = cited from earlier work; for Fractional phosphorus absorption / Net phosphorus absorption: mean ± SE
[10] = 600 mg oral, cited from earlier work

In the case of `O=C([O-])CC(O)(CC(=O)[O-])C(=O)[O-].O=C([O-])CC(O)(CC(=O)[O-])C(=O)[O-].[Ca+2].[Ca+2].[Ca+2]` [Calcium Citrate], the “Observed in vitro Pi Binding, %” value [1] is listed as 10% and the “Observed in vitro Pi Binding” value ([1]; pH 6.5) is listed as 20% at pH 6.5 (NOTE 2).
With `[O]=[Mg]` [Magnesium Oxide] the “Hydrophile?” value [2] was “No”.
In the case of `[Mg+2].[OH-].[OH-]` [Magnesium Hydroxide], the “serum Pi levels” value ([3]; avg 991 mg elemental Mg daily, dialysate lacking Mg, rose from 4.3) is given as 6.1 mg/dL, the “serum Mg level (average)” value ([3]; during Mg(OH)2 treatment) is given as 4.3 mg/dL and the “serum Pi levels” value ([4]; avg 734 mg elemental Mg/day, 3-5 weeks, control (no binders) 9.0 mg/dL) is given as 8.1 mg/dL. For the same compound, the “mean serum Mg levels” value ([4]; avg 734 mg elemental Mg/day, dialysate Mg 1.2 to 1.8 mg/dl) was 4.32 mg/dL, the “patients who developed diarrhea” value ([4]; nine hemodialysis patients) was “Four of nine” and the “suppressing parathyroid hormone (PTH) secretion” value [5] was “Neither the combination of oral calcium carbonate/magnesium hydroxide nor magnesium hydroxide alone was effective”. The severe hyperkalemia [6] was at most 8 mEq/L.
In the case of `O=C([O-])CCCC[C@@H]1CCSS1.O=C([O-])CCCC[C@@H]1CCSS1.[Mg+2]` [magnesium (R)-(+)-lipoate], the stability during storage (Stability during storage) is reported as “stable during storage”.
For `O=C([O-])CCC(=O)[O-].[Ca+2]` [Calcium Succinate], the “Observed in vitro Pi Binding, %” value ([7]; pH 4.0) was 59.4% and the “Observed in vitro Pi Binding, %” value ([7]; pH 6.0) was 94.0%.
For choline magnesium trisalicylate, the “effect on serum Pi levels” value [8] is given as “no effect”.
For Magnesium Acetate, the “fractional absorption of dietary Pi” value ([9]; 50 mEq of the salt, reduced from 77%) is listed as 34%, the “Pi absorption from ingesta” value ([9]; 77 mEq per os, 75% with placebo, normal subjects) is listed as 28% and the fractional magnesium absorption ([9]; highest magnesium intake) is listed as 11%. The fractional magnesium absorption ([9]; lowest magnesium intake) was 65%, the Fractional phosphorus absorption ([9]; standard meal + 10.2 mEq MgAc) was 55.8 ± 2.8 % and the Net phosphorus absorption ([9]; standard meal + 10.2 mEq MgAc) was 7.5 ± 0.4 mmol. The Fractional phosphorus absorption ([9]; standard meal + 19.4 mEq MgAc) was 47.1 ± 3.4 %, the Net phosphorus absorption ([9]; standard meal + 19.4 mEq MgAc) was 6.3 ± 0.5 mmol and the Fractional phosphorus absorption ([9]; standard meal + 39.0 mEq MgAc) was 37.0 ± 5.4^|| %. The Net phosphorus absorption ([9]; standard meal + 39.0 mEq MgAc) was 4.8 ± 0.7^|| mmol, the Fractional phosphorus absorption ([9]; standard meal + 77.2 mEq MgAc) was 28.1 ± 4.8^¶ % and the Net phosphorus absorption ([9]; standard meal + 77.2 mEq MgAc) was 3.8 ± 0.6^¶ mmol.
For `O=C(O)CCCC[C@@H]1CCSS1` [(R)-(+)-lipoic acid], the stability during storage (Stability during storage) was “even more unstable during storage”.
In the case of `O=C(O)CCCCC1CCSS1` (centres unmarked) [lipoic acid, 1,2-dithiolane-3-pentanoic acid], the stability during storage (Stability during storage) is listed as “unstable during storage”, the “safety when ingested by patients with kidney disease” value [10] is listed as “safe” and the “pharmacokinetics, influence of renal function” value ([10]; severely reduced kidney function or ESRD vs healthy) is listed as “not influenced by creatinine clearance”.
For magnesium lipoate, the stability during storage (Stability during storage) was “stable during storage”.
For Calcium Gluconate, the “Observed in vitro Pi Binding, %” value [1] is listed as 90%.
